Values of other authors, collected in patent publication US20050182128A1, “Use of anethole dithiolethione in lung cancer chemoprevention” (priority 2002, published 2005).

Experiments:
metaplasia = metaplasia as intermediate endpoint biomarker; cited from earlier work
aflatoxins = conditions: in vivo; cited from earlier work
[1] = in vivo; cited from earlier work
[2] = system: glutathione-S-transferase (GST); conditions: rat model of hepatoma; p<0.01; cited from earlier work

Structure (SMILES) | Chemopreventive efficacy (metaplasia) | Phase I activation of aflatoxins (aflatoxins) | Phase II conjugation of aflatoxin (aflatoxins) | Toxicity in chemoprevention [1] | Mean GST levels in the liver [2]
CC1=C(/C=C/C(C)=C/C=C/C(C)=C/C(=O)Nc2ccc(O)cc2)C(C)(C)CCC1 [N-(4-Hydroxyphenyl)retinamide] | not found to be effective |  |  |  | 
Cc1c(-c2cnccn2)ssc1=S [Oltipraz, 5-(2-pyrazinyl)-4-methyl-1,2-dithiol-3-thione] |  | inhibited phase I activation of aflatoxins | increased phase II conjugation of aflatoxin | too toxic for chemoprevention | statistically increased
CC1=C(/C=C/C(C)=C/C=C/C(C)=C\C(=O)O)C(C)(C)CCC1 [isotretinoin] | not found to be effective |  |  |  | 
